Assay [1] has as its target fibrillar β-amyloid peptide (Homo sapiens, UniProt P05067). In words: Co-precipitation with aggregated β-amyloid peptide (supernatant absorbance spectrum after centrifugation). Type of assay: binding. How it is done: A preparation of Compound 8, supra, was employed in this assay. Soluble β-amyloid peptide was allowed to aggregate in the presence of phosphate buffer, Compound 8 or dithionitrobenzene and various compounds as described in Example 1, supra. The samples containing dithionitrobenzene are controls for non-specific association of a chromophoric small molecule with precipitated β-amyloid peptide. An additional control sample was prepared containing phosphate buffer and the various compounds, but lacking β-amyloid peptide. After overnight incubation, the tubes were centrifuged at 15,000×g for 30 minutes, half of the supernatant removed and added to a cuvette, and the absorbance spectrum of the supernatant from 200 to 600 nm obtained. In the absence of an association between compound 8 and aggregated sedimentable B-amyloid components of the aggregated assay incubation, compound 8, which has an absorbance maximum at about 350 nm, will remain in the supernatant and its presence and concentration can be readily determined. Alternatively, association of Compound 8 with the precipitated β-amyloid peptide would result in decreased absorbance at 350 nm. […] In the control tubes, no decrease in the absorbance is expected, since the compound should remain soluble.

Another assay addresses T1, soluble βAP (Homo sapiens, UniProt P05067).
T1 construct: Soluble βAP (400 μM βAP 1-28), 0.1 M sodium acetate in 0.1 M phosphate buffer; purchased Bachem (Torrance, Calif.); host or cells: chemical synthesis
In words: Thioflavin-T fluorescence assay of βAP aggregation and seeding. Type of assay: biochemical. To be noted: 400 μM βAP 1-28, 0.1 M sodium acetate pH 7.0; 100 mM glucose, 0.05 M aminoguanidine; FIG. 4.

Sequence of fibrillar β-amyloid peptide (P05067 672-713 limits assumed): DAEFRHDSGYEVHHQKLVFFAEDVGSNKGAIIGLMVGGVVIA
T1 sequence (P05067 672-699): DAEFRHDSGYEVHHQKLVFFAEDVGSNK
Experimental for soluble βAP: Aggregation of soluble βAP 1-28 or 3AP 1-40 at different concentrations was initiated by addition of 0.1 M sodium acetate (NaOAc) at the indicated pH (between 4.7 and 7.5) and continued for the indicated times. Quantitative aggregate formation with sub-millimolar βAP concentrations was detected using the procedure of LeVine (1992, Protein Science 2:404-410). Briefly, fluorescence of aggregates added to 10 μM Thioflavin-T (Aldrich)/50 mM potassium phosphate buffer, pH 6.0, was measured upon excitation at 450±5 nm and detection of emission at 482±10 nm on a Perkin Elmer LS-50B spectrofluorimeter. Where indicated, small amounts of pre-formed aggregates or “nucleation seeds” were added to the soluble βAP and aggregation initiated with 0.1 M sodium acetate.
After incubation, protein concentrations of seed preparations were measured and adjusted with buffer to 150 μM final concentration.

For the compound `Cc1ccc2nc(-c3ccc(NCCCC[N+](C)(C)C[C@@]4(O)OC[C@@H](O)[C@@H](O)[C@@H]4O)cc3)sc2c1` [Compound 8, (4-[N-(4-[N-(1-deoxy-β-D-fructopyranos-1-yl)-N,N-dimethylammonio]butyl)amino]phenyl)-6-methylbenzothiazole chloride], the “absorbance of the supernatant after pelleting of fibrillar β-amyloid peptide versus before pelleting” value in assay [1] (350 nm for Compound 8, overnight incubation, 15,000×g for 30 minutes, FIG. 7) is “reduced”. Moreover, the “association with insoluble aggregated β-amyloid peptide” value in assay [1] (co-sedimentation in vitro) is “specifically associates with insoluble, aggregated β-amyloid peptide deposits”.

With `N=C(N)NN` [aminoguanidine], at soluble βAP, the “effect on fluorescent aggregate formation of soluble βAP” value is recorded as “can inhibit the AGE-enhanced aggregation”.

These data come from patent publication US6410598B1, “Compositions and methods for advanced glycosylation endproduct-mediated modulation of amyloidosis” (priority 1994, dated 2002).
